Measurements from ChEMBL document CHEMBL6127131, “Design, Synthesis, and Biological Evaluation of New Selective PDE4 Inhibitors for Topical Treatment of Psoriasis” (J Med Chem, 2024).
The source made the active and inactive calls. No cut-off for these calls is given here.

Columns and labels:
[1] = molecular target: T1, 3',5'-cyclic-AMP phosphodiesterase 4D (Homo sapiens, UniProt Q08499); test: Inhibition of PDE4D (unknown origin)
[2] = Metabolic stability in human liver microsomes assessed as half-life preincubated for 2 hrs followed by NADPH regenerating agent addition and measured upto 4 hrs by LC-MS analysis; format: ADME, Microsome; settings: time < 6 hrs
RAW264.7 [3] = test: Anti-inflammatory activity against LPS induced mouse RAW264.7 cells assessed as reduction in TNFalpha secretion incubated for 24 hrs by ELISA; format: functional, cell-based; settings: RAW264.7, 24 h
RAW264.7 [4] = test: Anti-inflammatory activity against LPS induced mouse RAW264.7 cells assessed as reduction in IL-6 secretion incubated for 24 hrs by ELISA; format: functional, cell-based; settings: RAW264.7, 24 h
[5] = Cytotoxicity against mouse RAW264.7 cells incubated for 24 hrs by CCK8 assay; format: toxicity, cell-based
HaCaT = test: Anti-inflammatory activity against M5 induced human HaCaT cells assessed as reduction in TNFalpha secretion incubated for 24 hrs by ELISA; format: functional, cell-based
[6] = Cytotoxicity against human HaCaT cells incubated for 24 hrs by CCK8 assay; format: toxicity, cell-based
[7] = molecular target: 3',5'-cyclic-AMP phosphodiesterase 4A (Homo sapiens, UniProt P27815); test: Inhibition of PDE4A (unknown origin)
[8] = molecular target: Cannabinoid receptor 1 (Homo sapiens) (UniProt P21554); test: Inhibition of CB1 (unknown origin) at 10 uM relative to control
[9] = molecular target: 5-hydroxytryptamine receptor 1B (Homo sapiens) (UniProt P28222); test: Inhibition of 5-HT1B (unknown origin) at 10 uM relative to control
[10] = molecular target: D(2) dopamine receptor (Homo sapiens) (UniProt P14416); test: Inhibition of D2S (unknown origin) at 10 uM relative to control
[11] = AUC(0 to t) in ICR(CD-1) mouse at 5 mg/kg, iv measured upto 24 hrs by LC-MS/MS analysis; format: ADME, organism-based; settings: in vivo
[12] = AUC(0 to infinity) in ICR(CD-1) mouse at 5 mg/kg, iv measured upto 24 hrs by LC-MS/MS analysis; format: ADME, organism-based; settings: in vivo
[13] = Initial plasma concentration in ICR(CD-1) mouse at 5 mg/kg, iv measured upto 24 hrs by LC-MS/MS analysis; format: ADME, organism-based
[14] = Half-life in ICR(CD-1) mouse at 5 mg/kg, iv measured upto 24 hrs by LC-MS/MS analysis; format: ADME, organism-based; settings: in vivo
[15] = Apparent volume of distribution in ICR(CD-1) mouse at 5 mg/kg, iv measured upto 24 hrs by LC-MS/MS analysis; format: ADME, organism-based; settings: in vivo, read-out: Vz
[16] = Clearance in ICR(CD-1) mouse at 5 mg/kg, iv measured upto 24 hrs by LC-MS/MS analysis; format: ADME, organism-based; settings: in vivo
[17] = AUC(0 to t) in ICR(CD-1) mouse at 10 mg/kg, po measured upto 24 hrs by LC-MS/MS analysis; format: ADME, organism-based; settings: in vivo
[18] = AUC(0 to infinity) in ICR(CD-1) mouse at 10 mg/kg, po measured upto 24 hrs by LC-MS/MS analysis; format: ADME, organism-based; settings: in vivo
[19] = Cmax in ICR(CD-1) mouse at 10 mg/kg, po measured upto 24 hrs by LC-MS/MS analysis; format: ADME, organism-based; settings: in vivo
[20] = Half-life in ICR(CD-1) mouse at 10 mg/kg, po measured upto 24 hrs by LC-MS/MS analysis; format: ADME, organism-based; settings: in vivo
[21] = Tmax in ICR(CD-1) mouse at 10 mg/kg, po measured upto 24 hrs by LC-MS/MS analysis; format: ADME, organism-based; settings: in vivo
[22] = Oral bioavailability in ICR(CD-1) mouse at 10 mg/kg measured upto 24 hrs by LC-MS/MS analysis; format: ADME, organism-based; settings: in vivo
[23] = Drug concentration in ICR(CD-1) mouse blood at 1.2% administered topically and measured after 1 hr by LC-MS/MS analysis; format: ADME, tissue-based; settings: topical or ocular, route top, read-out: Ct
[24] = Drug concentration in ICR(CD-1) mouse blood at 1.2% administered topically and measured after 2 hrs by LC-MS/MS analysis; format: ADME, tissue-based; settings: topical or ocular, route top, read-out: Ct
[25] = Metabolic stability in monkey liver microsomes assessed as half-life preincubated for 2 hrs followed by NADPH regenerating agent addition and measured upto 4 hrs by LC-MS analysis; format: ADME, Macaca mulatta, Microsome; settings: rhesus monkey, time < 6 hrs
[26] = Metabolic stability in dog liver microsomes assessed as half-life preincubated for 2 hrs followed by NADPH regenerating agent addition and measured upto 4 hrs by LC-MS analysis; format: ADME, Canis lupus familiaris, Microsome; settings: time < 6 hrs
[27] = Metabolic stability in mouse liver microsomes assessed as half-life preincubated for 2 hrs followed by NADPH regenerating agent addition and measured upto 4 hrs by LC-MS analysis; format: ADME, Microsome; settings: time < 6 hrs
[28] = Metabolic stability in rat liver microsomes assessed as half-life preincubated for 2 hrs followed by NADPH regenerating agent addition and measured upto 4 hrs by LC-MS analysis; format: ADME, Microsome; settings: time < 6 hrs
Mus musculus [29] = organism: Mus musculus; test: Antiinflammatory activity against imiquimod-induced psoriasis in BALB/c mouse model assessed as improvement in clinical features of skin lesions pretreated with IMQ for 4 hrs followed by compound addition once daily from day 2 to 8; format: functional, organism-based; settings: dose 0.3-1.2 %, time 7.0 day
[30] = Toxicity in BALB/c mouse assessed as body weight loss at 0.3 to 1.2% administration as ointment once a day from day 2 to 8; settings: in vivo, topical_or_ocular, 168 h, dose 0.3-1.2 %, time 7 day
Mus musculus [31] = test: Antiinflammatory activity against imiquimod-induced psoriasis in BALB/c mouse model assessed as reduction in spleen enlargement at 0.3 to 1.2% administration as ointment pretreated with IMQ for 4 hrs followed by compound addition once daily from day 2 to 8; format: functional, organism-based; settings: dose 0.3-1.2 %, time 7.0 day
Mus musculus [32] = test: Antiinflammatory activity against imiquimod-induced psoriasis in BALB/c mouse model assessed as reduction in IL-1beta protein level at 1.2% administration as ointment pretreated with IMQ for 4 hrs followed by compound addition once daily from day 2 to 8 by ELISA; format: functional, organism-based; settings: time 7.0 day
Mus musculus [33] = test: Antiinflammatory activity against imiquimod-induced psoriasis in BALB/c mouse model assessed as reduction in IL-17A protein level at 1.2% administration as ointment pretreated with IMQ for 4 hrs followed by compound addition once daily from day 2 to 8 by ELISA; format: functional, organism-based; settings: time 7.0 day
Mus musculus [34] = test: Antiinflammatory activity against imiquimod-induced psoriasis in BALB/c mouse model assessed as reduction in skin thickness at 0.3 to 1.2% administration as ointment pretreated with IMQ for 4 hrs followed by compound addition once daily from day 2 to 8 by H and E staining based assay; format: functional, organism-based; settings: dose 0.3-1.2 %, time 7.0 day
Mus musculus [35] = test: Antiinflammatory activity against imiquimod-induced psoriasis in BALB/c mouse model assessed as reduction in immune cell infiltration at 0.3 to 1.2% administration as ointment pretreated with IMQ for 4 hrs followed by compound addition once daily from day 2 to 8 by H and E staining based assay; format: functional, organism-based; settings: dose 0.3-1.2 %, time 7.0 day
RAW264.7 [36] = test: Downregulation of IL-1beta mRNA expression in LPS induced mouse RAW264.7 cells at 5 to 20 uM preincubated for 12 hrs followed by LPS stimulation for 4 hrs by RT-qPCR analysis; format: functional, cell-based; settings: dose 5-20 µM, time 16.0 hrs
RAW264.7 [37] = test: Downregulation of IL-6 mRNA expression in LPS induced mouse RAW264.7 cells at 5 to 20 uM preincubated for 12 hrs followed by LPS stimulation for 4 hrs by RT-qPCR analysis; format: functional, cell-based; settings: dose 5-20 µM, time 16.0 hrs
RAW264.7 [38] = test: Downregulation of IL-17A mRNA expression in LPS induced mouse RAW264.7 cells at 5 to 20 uM preincubated for 12 hrs followed by LPS stimulation for 4 hrs by RT-qPCR analysis; format: functional, cell-based; settings: dose 5-20 µM, time 16.0 hrs
RAW264.7 [39] = test: Downregulation of TNFalpha mRNA expression in LPS induced mouse RAW264.7 cells at 5 to 20 uM preincubated for 12 hrs followed by LPS stimulation for 4 hrs by RT-qPCR analysis; format: functional, cell-based; settings: dose 5-20 µM, time 16.0 hrs
RAW264.7 [40] = test: Upregulation of EPAC1 protein expression in mouse RAW264.7 cells at 5 to 20 uM preincubated for 12 hrs followed by LPS stimulation for 4 hrs by Western blotting analysis; format: functional, cell-based; settings: dose 5-20 µM, time 16.0 hrs
RAW264.7 [41] = test: Upregulation of p-CREB1/CREB1 protein ratio in mouse RAW264.7 cells at 5 to 20 uM preincubated for 12 hrs followed by LPS stimulation for 4 hrs by Western blotting analysis; format: functional, cell-based; settings: dose 5-20 µM, time 16.0 hrs
[42] = molecular target: T1, 3',5'-cyclic-AMP phosphodiesterase 4D; test: Inhibition of PDE4D7 (unknown origin)

T1 sequence (Q08499 whole entry): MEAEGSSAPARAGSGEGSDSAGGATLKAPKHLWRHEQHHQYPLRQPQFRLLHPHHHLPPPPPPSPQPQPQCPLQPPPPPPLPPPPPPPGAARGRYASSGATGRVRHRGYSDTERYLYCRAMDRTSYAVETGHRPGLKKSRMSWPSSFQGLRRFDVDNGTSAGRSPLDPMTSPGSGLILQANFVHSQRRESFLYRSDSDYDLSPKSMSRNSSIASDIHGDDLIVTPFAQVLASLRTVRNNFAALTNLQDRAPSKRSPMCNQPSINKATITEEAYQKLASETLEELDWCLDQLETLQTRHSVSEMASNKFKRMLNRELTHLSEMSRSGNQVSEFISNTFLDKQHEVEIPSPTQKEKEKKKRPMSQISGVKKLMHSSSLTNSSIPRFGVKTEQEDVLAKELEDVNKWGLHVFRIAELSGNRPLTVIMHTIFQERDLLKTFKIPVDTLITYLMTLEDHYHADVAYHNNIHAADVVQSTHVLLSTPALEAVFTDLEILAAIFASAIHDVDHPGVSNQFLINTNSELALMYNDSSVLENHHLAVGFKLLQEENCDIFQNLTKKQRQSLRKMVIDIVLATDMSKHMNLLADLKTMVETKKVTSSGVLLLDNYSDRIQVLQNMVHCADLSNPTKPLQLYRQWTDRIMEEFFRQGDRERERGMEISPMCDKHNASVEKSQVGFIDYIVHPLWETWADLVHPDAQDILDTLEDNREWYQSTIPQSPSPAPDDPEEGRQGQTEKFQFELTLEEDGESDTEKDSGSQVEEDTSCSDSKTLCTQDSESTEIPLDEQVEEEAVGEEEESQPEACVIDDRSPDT
5-hydroxytryptamine receptor 1B (Homo sapiens), sequence (P28222 whole entry): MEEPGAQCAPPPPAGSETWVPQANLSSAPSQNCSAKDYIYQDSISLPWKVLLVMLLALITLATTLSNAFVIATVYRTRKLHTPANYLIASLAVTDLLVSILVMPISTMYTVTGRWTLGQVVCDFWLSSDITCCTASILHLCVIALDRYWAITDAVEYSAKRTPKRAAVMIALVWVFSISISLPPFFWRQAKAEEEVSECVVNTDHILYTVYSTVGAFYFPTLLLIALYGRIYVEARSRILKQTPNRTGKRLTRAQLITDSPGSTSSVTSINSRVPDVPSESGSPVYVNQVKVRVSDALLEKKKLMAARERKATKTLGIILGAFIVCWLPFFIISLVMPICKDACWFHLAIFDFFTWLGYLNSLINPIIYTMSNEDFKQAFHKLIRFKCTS
Cannabinoid receptor 1 (Homo sapiens), sequence (P21554 whole entry): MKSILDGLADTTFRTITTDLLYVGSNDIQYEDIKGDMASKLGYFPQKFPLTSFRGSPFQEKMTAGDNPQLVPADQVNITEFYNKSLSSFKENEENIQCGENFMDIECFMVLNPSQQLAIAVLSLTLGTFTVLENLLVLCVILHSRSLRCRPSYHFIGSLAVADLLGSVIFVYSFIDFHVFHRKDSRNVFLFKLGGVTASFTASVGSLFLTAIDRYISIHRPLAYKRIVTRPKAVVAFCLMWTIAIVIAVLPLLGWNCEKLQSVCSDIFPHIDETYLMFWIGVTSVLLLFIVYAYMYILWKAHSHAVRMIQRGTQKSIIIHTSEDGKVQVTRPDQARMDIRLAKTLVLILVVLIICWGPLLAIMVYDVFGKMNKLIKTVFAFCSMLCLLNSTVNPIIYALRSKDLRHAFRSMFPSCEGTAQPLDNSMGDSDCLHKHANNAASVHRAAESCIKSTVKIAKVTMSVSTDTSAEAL
3',5'-cyclic-AMP phosphodiesterase 4A, sequence (P27815 whole entry): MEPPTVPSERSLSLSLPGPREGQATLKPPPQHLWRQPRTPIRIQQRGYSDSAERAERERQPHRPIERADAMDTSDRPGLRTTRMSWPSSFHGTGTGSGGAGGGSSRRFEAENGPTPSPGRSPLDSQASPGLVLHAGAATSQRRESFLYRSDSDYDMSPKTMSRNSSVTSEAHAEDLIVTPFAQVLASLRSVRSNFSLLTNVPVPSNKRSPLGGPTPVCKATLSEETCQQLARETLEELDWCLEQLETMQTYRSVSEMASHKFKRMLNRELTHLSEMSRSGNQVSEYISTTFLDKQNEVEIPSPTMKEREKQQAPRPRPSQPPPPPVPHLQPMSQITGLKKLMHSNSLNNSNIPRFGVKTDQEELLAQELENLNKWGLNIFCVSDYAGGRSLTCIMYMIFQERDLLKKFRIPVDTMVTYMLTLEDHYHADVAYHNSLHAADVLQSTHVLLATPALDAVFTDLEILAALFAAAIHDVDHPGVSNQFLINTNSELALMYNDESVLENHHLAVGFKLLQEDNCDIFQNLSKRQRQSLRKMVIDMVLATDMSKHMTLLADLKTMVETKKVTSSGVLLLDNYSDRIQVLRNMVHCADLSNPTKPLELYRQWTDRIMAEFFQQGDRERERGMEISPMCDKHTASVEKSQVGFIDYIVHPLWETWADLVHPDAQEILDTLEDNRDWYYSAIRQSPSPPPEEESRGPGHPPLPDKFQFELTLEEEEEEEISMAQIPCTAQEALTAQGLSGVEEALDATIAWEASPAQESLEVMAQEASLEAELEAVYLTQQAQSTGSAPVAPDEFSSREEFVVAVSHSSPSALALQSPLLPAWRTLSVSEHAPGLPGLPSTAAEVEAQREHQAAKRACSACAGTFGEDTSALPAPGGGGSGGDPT
D(2) dopamine receptor (Homo sapiens), sequence (P14416 whole entry): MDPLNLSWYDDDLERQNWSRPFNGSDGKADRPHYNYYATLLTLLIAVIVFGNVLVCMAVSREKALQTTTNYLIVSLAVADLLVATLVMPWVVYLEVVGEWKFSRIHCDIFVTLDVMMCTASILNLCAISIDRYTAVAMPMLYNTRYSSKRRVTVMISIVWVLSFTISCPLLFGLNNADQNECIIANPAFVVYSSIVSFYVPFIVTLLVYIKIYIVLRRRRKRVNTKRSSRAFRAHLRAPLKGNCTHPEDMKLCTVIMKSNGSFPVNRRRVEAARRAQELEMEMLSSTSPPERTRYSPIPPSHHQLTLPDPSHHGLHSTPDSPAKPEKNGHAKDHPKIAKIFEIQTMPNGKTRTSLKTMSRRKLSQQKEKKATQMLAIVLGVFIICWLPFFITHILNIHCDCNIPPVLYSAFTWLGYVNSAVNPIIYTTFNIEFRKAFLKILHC

CCOc1cc([C@@H](CS(C)(=O)=O)N2C(=O)c3csc(NC(C)=O)c3C2=O)ccc1OC
IC50 [1]: 0.114 µM

O=C(NCc1ncccn1)c1csc(-c2ccc(OC(F)F)c(OCC3CC3)c2)n1
half-life [2]: 296 min
IC50 (RAW264.7 [3]): 34.2 µM
IC50 (RAW264.7 [4]): 40.9 µM
CC50 at 24 h [5]: > 50 µM
IC50 (HaCaT): 38.6 µM
CC50 at 24 h [6]: > 50 µM
IC50 [7]: 0.00711 µM
inhibition [8]: 51.4%
inhibition [9]: 56.6%
inhibition [10]: 53.8%
AUC(0-t) at 24 h [11]: 619 ng·h/mL
AUC(0-inf) [12]: 620 ng·h/mL
C0 at 24 h [13]: 5240 ng/mL
half-life [14]: 16.2 min
Vd [15]: 3.12 L/kg
clearance [16]: 135 mL/min/kg
AUC(0-t) at 24 h [17]: 41 ng·h/mL
AUC(0-inf) [18]: 51 ng·h/mL
Cmax [19]: 31 ng/mL
half-life [20]: 133 min
Tmax [21]: 64.8 min
bioavailability [22]: 3.31%
concentration at 1 h [23]: 0.34 ng/mL
concentration at 2 h [24]: 0.35 ng/mL
half-life [25]: 25.6 min
half-life [26]: 62.1 min
half-life [27]: 28.6 min
half-life [28]: 25.3 min
Activity (Mus musculus [29]): Dose-Dependent Effect
Activity [30]: Non-Toxic
Activity (Mus musculus [31]): Active
Activity (Mus musculus [32]): Active
Activity (Mus musculus [33]): Active
Activity (Mus musculus [34]): Active
Activity (Mus musculus [35]): Active
Activity (RAW264.7 [36]): Active
Activity (RAW264.7 [37]): Active
Activity (RAW264.7 [38]): Active
Activity (RAW264.7 [39]): Active
Activity (RAW264.7 [40]): Active
Activity (RAW264.7 [41]): Active

N#Cc1ccc(Oc2ccc3c(c2)COB3O)cc1 [CRISABOROLE]
IC50 [42]: 0.17 µM
